Data from patent US9440967B2, “1H-pyrrolo [2, 3 -B] pyridine derivatives and their use as radical quenchers” (Arizona Board of Regents on Behalf of Arizona State …, priority 2012, dated 2016).
Where a name gives a salt, the structure may show the parent alone.

Columns and labels:
CEM leukemia cells [1] = test: Lipid peroxidation, C11-BODIPY581/591 oxidation in cell culture (FACS); assay type: cell-based, Human; settings: CEM cells pretreated 16 h with 2.5 and 5 μM compound, then 5 mM DEM 90 min; compared with α-tocopherol; FIG. 2
Method: FIG. 2. Comparison of the lipid peroxidation in CEM leukemia cells depleted of glutathione detected by utilizing the oxidation-sensitive fatty acid probe C-11 BODIPY^581/591 using flow cytometry. Increased C-11 BODIPY-green fluorescence (oxidized form), a measure of intracellular lipid peroxidation, was determined by increasing the geometric mean fluorescence intensity (GMFI) of C-11 BODIPY-green relative to the untreated control. A bar graph representing the percentage of the geometric mean fluorescence intensity (GMFI) of C-11 BODIPY-green fluorescence relative to a treated control is shown. Data are expressed as the mean±SEM (n=3). α-TOH is α-tocopherol.
Lipid peroxidation in CEM leukemia cells was detected by utilizing the oxidant-sensitive lipophilic probe C11 BODIPY^581/591. Briefly, CEM cells (5×10^5 cell/mL) were treated with the test compounds at final concentrations of 2.5 and 5 μM, and incubated at 37° C. for 16 h in a humidified atmosphere containing 5% CO2 in air. Cells were treated with 1 μMC11 BODIPY^581/591 in phenol red-free RPMI-1640 media and incubated at 37° C. in the dark for 30 minutes. The cells were washed twice with phosphate buffered saline and oxidative stress was induced with 5 mM DEM in phenol red-free RPMI-1640 media for 90 minutes. Treated cells were collected by centrifugation at 300×g for 3 minutes and then washed twice with phosphate buffered saline. Cells were re-suspended in 250 μL of phosphate buffered saline and were analyzed by FACS (FACS Calibur flow cytometer, Becton Dickinson) to monitor the change in intensity of the C11 BODIPY^581/591-green (oxidized) fluorescence signal. A total of 10000 events were recorded for each sample and analyzed with the CellQuest software (BD Biosciences). The results were verified by repeating the experiments in duplicate. Results are expressed as the relative percentage of treated control (DEM).

CEM leukemia cells [2] = test: Mitochondrial membrane potential (Δψm) assay, TMRM staining (FACS); assay type: cell-based, Human; settings: CEM cells pretreated 16 h, then 5 mM DEM 120 min, 250 nM TMRM; FIG. 3 and 4
Method: FIG. 3. Representative flow cytometric two-dimensional color density dot plot analyses of mitochondrial membrane potential (ΔΨm) in leukemia CEM cells stained with 250 nM TMRM and analyzed using FL2-H channel as described in the experimental section. The percentage of cells with intact ΔΨm is indicated in the top right quadrant of captions. Representative example from at least three independent experiments. A total of 10000 events were recorded for each sample and analyzed with the CellQuest software (BD Biosciences).
FIG. 4. A bar graph representation of means the percentage of cells with intact ΔΨm recorded by FACS. Data are expressed as means±SEM of three independent experiments run in duplicate.
Measurement of Mitochondrial Membrane Potential (Δψm) (FACS). For the determination of Δψm, CEM leukemia cells were pre-treated with or without the test compounds for 16 h. The cells were treated with 5 mM DEM for 120 minutes, collected by centrifugation at 300×g for 3 minutes and then washed twice with phosphate buffered saline. The cells were re-suspended in HSSB buffer and incubated at 37° C. in the dark for 15 minutes with 250 nM TMRM (a cationic dye which accumulates within mitochondria in accordance with the Δψm Nernst potential). Cells were collected by centrifugation at 300×g for 3 minutes and then washed twice with phosphate buffered saline. The samples were analyzed immediately by flow cytometry using 488 nm excitation laser and the FL2-H channel. The results obtained were verified in three independent experiments. The protonophore FCCP (10 μM) was used to dissipate the chemiosmotic proton gradient […] and served as a control for loss of Δψm. […] The results were verified by repeating the experiments in duplicate.

CEM cells [3] = test: Reactive oxygen species (ROS) assay, DCFH-DA flow cytometry, glutathione depleted with diethyl maleate; assay type: cell-based, Human; settings: CEM cells pretreated 16 h with 1, 2.5 and 5 μM compound, then 5 mM DEM 50 min; compared with α-tocopherol; FIG. 1
Method: FIG. 1. Representative flow cytometric histograms overlay showing ROS production in CEM cells. Following pretreatment with the indicated compounds (1, 2.5 and 5 μM) for 16 h, the cells were treated with 5 mM diethyl maleate (DEM) for 50 min to deplete glutathione. The cells were washed in phosphate-buffered saline, and suspended in phosphate-buffered saline containing 20 mM glucose. Cells were loaded with 10 μM dichlorodihydrofluoresceindiacetate (DCFH-DA) for 20 min, and the green fluorescence (DCF) was measured by flow cytometry using the FL1-H channel. […] A total of 10000 events were recorded for each sample and analyzed with the CellQuest software (BD Biosciences). Increased DCF fluorescence, a measure of intracellular oxidation and ROS production, was determined by a shift in DCF fluorescence to the right on the x-axis of the FACS histogram. […] Data are expressed as the mean±SEM (n=3). α-TOH is α-tocopherol.
Cellular ROS production can be monitored using 2′,7′-dichlorodihydrofluorescein diacetate (DCFH-DA) (LeBel et al. (1992) Chem. Res. Toxicol. 5, 227-231) (Molecular Probes, Eugene, Oreg., USA), a membrane permeable and oxidant-sensitive fluorescent dye. DCFH-DA is a non-fluorescent derivative of fluorescein that emits fluorescence after being oxidized by hydrogen peroxide and other ROS. The emitted fluorescence is directly proportional to the concentration of hydrogen peroxide. DCFH-DA is nonionic and nonpolar and is easily taken up by cells. Once inside the cell, DCFH-DA is hydrolyzed by cellular esterases to non-fluorescent DCFH which traps the dye in the cell. In the presence of ROS including hydrogen peroxide, DCFH is oxidized to the highly fluorescent compound dichlorofluorescein (DCF). The intracellular DCF fluorescence is used as an index of cellular ROS production.
Cellular oxidative stress was induced by pharmacological depletion of glutathione (GSH) using the chemical diethylmaleate (DEM). ROS production was assessed by monitoring DCF fluorescence. Leukemic CEM cells (ATCC®, catalogue number CRL-2264) were cultured in RPMI (GIBCO, Grand island, NY, USA) with 10% FCS, 2 mM glutamine (HyClone, South Logan, Utah, USA) and 1% penicillin-streptomycin mix antibiotics (Cellgro, Manassas, Va., USA) supplements. CEM cells (5×10^5 cell/mL) were plated (1 mL) in 24-well plate and treated with the invention compounds (final concentration 1, 2.5, and 5 μM), and incubated at 37° C., 5% CO2 for 16 hours. The compounds tested were prepared by first making stock solutions (2.5 mM) in dimethylsulfoxide (DMSO). Cells were treated with 5 mM DEM for 50 minutes and collected by centrifugation at 300×g for 3 min and then washed twice with Hanks' Balanced Salt Solution (HSSB) buffer (Sigma, St. Louis, Mo. USA). Cells were re-suspended in HSSB buffer+20 mM glucose and incubated at 37° C. in the dark for 20 min with 10 μM DCFH-DA. Cells were collected by centrifugation at 300×g for 3 min and then washed twice with HSSB buffer. The samples were analyzed immediately by flow cytometry (Becton-Dickinson FACS Caliber), (Cell Quest software, BD Biosciences) using 488 nm excitation laser and FL1-H channel 538 nm emission filter. In each analysis, 10,000 events were recorded after cell debris were electronically gated out. Results obtained were verified by repeating experiments N=3 independent experiments. Authentic hydrogen peroxide was used as a positive control.

[4] = James et al. (2005) J Biol. Chem. 280, 21295-21312; cited from earlier work
CEM cells [5] = test: Trypan blue cell viability assay of DEM-treated cells; assay type: cell-based, Human; settings: CEM cells pretreated 16 h, then 5 mM DEM 5.5 h; FIG. 5
Method: FIG. 5. Trypan blue exclusion assay of CEM cells treated with test compounds for 16 h before exposure to 5 mM diethyl maleate for 5.5 h. At the time of assay, >80% of the DEM-treated cells were trypan blue positive, whereas in the non-DEM treated control, >95% of the cells were viable. Cell viability was expressed as the percentage of control. Results are an average of three independents trials. α-TOH is α-tocopherol.
Cell viability determined by trypan blue exclusion assay: This technique was used to assess the cytoprotective effects of the invention compounds in cultured cells pharmacologically treated to induce cell death by GSH depletion. DEM was used to deplete cellular GSH and induce oxidative stress. The viability of DEM-treated CEM cells was determined by their ability to exclude the dye trypan blue. Viable cells exclude trypan blue; whereas, non-viable cells take up the dye and stain blue. Briefly, CEM lymphoblasts (CCL-119) were grown in RPMI 1640 medium (GIBCO, Grand island, NY, USA) supplemented with 10% fetal calf serum, 2 mM glutamine (HyClone, South Logan, Utah, USA), 1% penicillin-streptomycin mix (Cellgro, Manassas, Va., USA). Cells were seeded at a density of 5×10^5 cells/mL and treated with different concentrations of the invention compounds. Cells were incubated at 37° C. in a humidified atmosphere of 5% CO2 in air for 16 hours. After pre-incubation, the cells were treated with 5 mM DEM for 5.5 h. Cell viability was determined by staining cells with 0.4% trypan blue using a hemacytometer. At least 500 cells were counted for each experimental group. At the time of assay, >80% of DEM-treated cells were trypan blue positive; whereas, in non-DEM treated control cell cultures>95% cells were viable. Cell viability was expressed as the percentage of control. Data are expressed as means±S.E.M (n=3).

| Compound | protection against lipid (membrane) peroxidation (C11-BODIPY-green fluorescence) (CEM leukemia cells [1]) | prevention of loss of Δψm (mitochondrial depolarization) (CEM leukemia cells [2]) | protection against ROS production (DCF fluorescence) (CEM cells [3]) | melting point [°C] | calculated octanol-water partition coefficient [4] | cytoprotection (cell viability, trypan blue exclusion) (CEM cells [5]) |
| --- | --- | --- | --- | --- | --- | --- |
| CCCCCc1nc2c(c(C)c1O)CCN2C [Compound 1a, 1,4-Dimethyl-6-pentyl-2,3-dihydro-1H-pyrrolo[2,3-b]pyridin-5-ol trifluoroacetic acid salt] | no protection | less effective in preventing mitochondrial depolarization | reduced protection | – | – | – |
| CCCCCCCCCCCCCCCCc1nc2c(c(C)c1O)CCN2C [Compound 1c, 1,4-Dimethyl-6-hexadecyl-2,3-dihydro-1H-pyrrolo[2,3-b]pyridin-5-ol trifluoroacetic acid salt] | Reduced protection | less effective in preventing mitochondrial depolarization | intermediate protection | – | – | – |
| CCCCCc1nc2c(c(C)c1OC(C)=O)CCN2C [Compound 2a, 1,4-Dimethyl-6-pentyl-2,3-dihydro-1H-pyrrolo[2,3-b]pyridin-5-yl acetate] | no protection | less effective in preventing mitochondrial depolarization | reduced protection | – | – | – |
| CCCCCCCCCCCCCCCCc1nc2c(c(C)c1OC(C)=O)CCN2C [Compound 2c, 1,4-Dimethyl-6-hexadecyl-2,3-dihydro-1H-pyrrolo[2,3-b]pyridin-5-yl acetate] | Reduced protection | less effective in preventing mitochondrial depolarization | intermediate protection | – | – | – |
| CCCCCCCCCCCCCCCCc1cc(C)c2c(n1)N(C)CC2 [Example 10, 1,4-Dimethyl-6-hexadecyl-2,3-dihydro-1H-pyrrolo[2,3-b]pyridine] | – | – | – | 43 to 45 | – | – |
| COC1=C(OC)C(=O)C(C/C=C(\C)CC/C=C(\C)CC/C=C(\C)CC/C=C(\C)CC/C=C(\C)CC/C=C(\C)CC/C=C(\C)CC/C=C(\C)CC/C=C(\C)CCC=C(C)C)=C(C)C1=O [coenzyme Q10] | – | – | – | – | > 10^20 | – |
| Cc1c(C)c2c(c(C)c1O)CC[C@@](C)(CCC[C@H](C)CCC[C@H](C)CCCC(C)C)O2 [α-tocopherol, reference compound] | – | – | – | – | – | significantly reduced cell death |
